Source: ChEMBL document CHEMBL4118237 (Bioorg Med Chem, 2018)
Activity calls are given as the source filed them. No cut-off for these calls is given here. *1 amine or outer side, *2 acyl side, *3 side chain or, on linkers, in order; H or OH if unused. Where a SMILES comes first, the peptide text is derived from it. Bridges are numbered along the chain shown (N, C = ends). Roman numbers before positions name the chains, in order. [ ]: non-standard residue; d: D form. Piperazine(1,4-diyl) = C1CN([*:2])CCN1[*:1]; Dmt = Cc1cc(O)cc(C)c1C[C@H](N)C(=O)O; Cystamine = C(CSSCCN[*:2])N[*:1]

Columns and labels:
Mu-type opioid receptor [1] = target: T1, Mu-type opioid receptor (Homo sapiens, UniProt P35372); assay: Displacement of [3H]DAMGO from MOR (unknown origin) expressed in HEK cells; assay type: cell-based
T1 sequence (P35372 whole entry): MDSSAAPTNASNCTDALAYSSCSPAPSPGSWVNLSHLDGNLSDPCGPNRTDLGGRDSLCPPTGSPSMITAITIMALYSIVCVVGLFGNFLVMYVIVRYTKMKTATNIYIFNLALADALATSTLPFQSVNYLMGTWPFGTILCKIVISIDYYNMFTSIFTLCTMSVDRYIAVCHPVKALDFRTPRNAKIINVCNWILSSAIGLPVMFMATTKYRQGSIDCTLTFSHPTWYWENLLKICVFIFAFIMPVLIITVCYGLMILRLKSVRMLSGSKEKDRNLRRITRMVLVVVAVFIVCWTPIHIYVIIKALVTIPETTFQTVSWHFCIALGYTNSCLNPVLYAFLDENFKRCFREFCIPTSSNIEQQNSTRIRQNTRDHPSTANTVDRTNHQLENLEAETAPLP

[2] = target: T2, Delta-type opioid receptor (Homo sapiens, UniProt P41143); assay: Agonist activity at DOR (unknown origin) expressed in HEK cells assessed as reduction in cAMP accumulation by split luciferase assay relative to DADLE; assay type: functional, cell-based
T2 sequence (P41143 whole entry): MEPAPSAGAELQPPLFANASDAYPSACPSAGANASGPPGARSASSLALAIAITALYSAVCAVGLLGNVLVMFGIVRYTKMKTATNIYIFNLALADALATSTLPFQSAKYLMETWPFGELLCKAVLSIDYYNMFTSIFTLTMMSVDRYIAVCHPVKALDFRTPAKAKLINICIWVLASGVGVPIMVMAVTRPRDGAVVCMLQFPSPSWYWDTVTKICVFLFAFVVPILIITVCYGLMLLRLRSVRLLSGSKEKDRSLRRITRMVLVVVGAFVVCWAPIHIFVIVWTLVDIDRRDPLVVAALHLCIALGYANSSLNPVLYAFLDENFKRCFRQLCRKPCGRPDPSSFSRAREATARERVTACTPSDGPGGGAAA

[3] = target: T2, Delta-type opioid receptor; assay: Displacement of [3H]DADLE from DOR (unknown origin) expressed in HEK cells; assay type: cell-based
[4] = target: T2, Delta-type opioid receptor; assay: Agonist activity at DOR (unknown origin) expressed in HEK cells assessed as reduction in cAMP accumulation by split luciferase assay; assay type: functional, cell-based
[5] = target: T3, Kappa-type opioid receptor (Homo sapiens, UniProt P41145); assay: Displacement of [3H]U69593 from KOR (unknown origin) expressed in HEK cells; assay type: cell-based
T3 sequence (P41145 whole entry): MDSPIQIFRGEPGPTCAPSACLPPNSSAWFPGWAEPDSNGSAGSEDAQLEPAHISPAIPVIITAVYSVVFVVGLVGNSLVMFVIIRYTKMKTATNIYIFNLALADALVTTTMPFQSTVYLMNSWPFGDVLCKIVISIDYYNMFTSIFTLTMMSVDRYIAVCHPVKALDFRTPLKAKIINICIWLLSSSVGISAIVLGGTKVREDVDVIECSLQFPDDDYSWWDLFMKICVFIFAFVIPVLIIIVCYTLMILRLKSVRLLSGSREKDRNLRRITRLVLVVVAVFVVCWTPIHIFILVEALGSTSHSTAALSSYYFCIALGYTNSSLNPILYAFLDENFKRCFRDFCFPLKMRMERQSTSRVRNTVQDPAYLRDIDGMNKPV

Mu-type opioid receptor [6] = target: T1, Mu-type opioid receptor; assay: Antagonist activity at MOR (unknown origin) expressed in HEK cells assessed as cAMP accumulation by split luciferase assay; assay type: functional, cell-based
Mu-type opioid receptor [7] = target: T1, Mu-type opioid receptor; assay: Agonist activity at MOR (unknown origin) expressed in HEK cells assessed as reduction in cAMP accumulation by split luciferase assay; assay type: functional, cell-based
[8] = target: T3, Kappa-type opioid receptor; assay: Antagonist activity at KOR (unknown origin) expressed in HEK cells assessed as cAMP accumulation by split luciferase assay; assay type: functional, cell-based
[9] = target: T3, Kappa-type opioid receptor; assay: Agonist activity at KOR (unknown origin) expressed in HEK cells assessed as reduction in cAMP accumulation by split luciferase assay relative to salvinorin A; assay type: functional, cell-based
[10] = target: T2, Delta-type opioid receptor; assay: Antagonist activity at DOR (unknown origin) expressed in HEK cells assessed as cAMP accumulation by split luciferase assay; assay type: functional, cell-based
Mu-type opioid receptor [11] = target: T1, Mu-type opioid receptor; assay: Agonist activity at MOR (unknown origin) expressed in HEK cells assessed as reduction in cAMP accumulation by split luciferase assay relative to DAMGO; assay type: functional, cell-based
[12] = target: T3, Kappa-type opioid receptor; assay: Agonist activity at KOR (unknown origin) expressed in HEK cells assessed as reduction in cAMP accumulation by split luciferase assay; assay type: functional, cell-based
[13] = target: T3, Kappa-type opioid receptor; assay: Binding affinity to KOR (unknown origin)

SMILES	Ki (Mu-type opioid receptor [1]) [nM]	Emax [2] [%]	Ki [3] [nM]	EC50 ([4]; read-out: EC50) [nM]	Ki [5] [nM]	Activity (Mu-type opioid receptor [6])	EC50 (Mu-type opioid receptor [7]) [nM]	Activity [8]	Emax [9] [%]	Activity [10]	Emax (Mu-type opioid receptor [11]) [%]	EC50 [12] [nM]	EC50 ([4]; read-out: pEC50 (converted)) [nM]	Ki [13] [nM]
N[C@@H](Cc1ccc(O)cc1)C(=O)N[C@@H]1CSSC[C@@H](NC(=O)[C@@H](N)Cc2ccc(O)cc2)C(=O)NCC(=O)N[C@@H](Cc2ccccc2)C(=O)N2CCN(CC2)C(=O)[C@H](Cc2ccccc2)NC(=O)CNC1=O (HELM PEPTIDE1{Y.[dC].G.F}|PEPTIDE2{Y.[dC].G.F}|CHEM1{[C1CN([*:2])CCN1[*:1]]}$PEPTIDE1,PEPTIDE2,2:R3-2:R3|PEPTIDE1,CHEM1,4:R2-1:R1|PEPTIDE2,CHEM1,4:R2-1:R2$$$V2.0)	8.9	77	27	245	19	inactive	513	inactive	92	inactive	54	339		
CC1(C)SSC(C)(C)[C@H](NC(=O)[C@@H](N)Cc2ccc(O)cc2)C(=O)NCC(=O)N[C@@H](Cc2ccccc2)C(=O)N2CCN(CC2)C(=O)[C@H](Cc2ccccc2)NC(=O)CNC(=O)[C@H]1NC(=O)[C@@H](N)Cc1ccc(O)cc1 (HELM PEPTIDE1{Y.[Pen].G.F}|PEPTIDE2{Y.[Pen].G.F}|CHEM1{[C1CN([*:2])CCN1[*:1]]}$PEPTIDE1,PEPTIDE2,2:R3-2:R3|PEPTIDE1,CHEM1,4:R2-1:R1|PEPTIDE2,CHEM1,4:R2-1:R2$$$V2.0)		206				inactive		inactive	62	inactive	86			
N[C@@H](Cc1ccc(O)cc1)C(=O)N[C@@H]1CSSC[C@@H](NC(=O)[C@@H](N)Cc2ccc(O)cc2)C(=O)NCC(=O)N[C@@H](Cc2ccccc2)C(=O)NCCSSCCNC(=O)[C@H](Cc2ccccc2)NC(=O)CNC1=O (HELM PEPTIDE1{Y.[dC].G.F}|PEPTIDE2{Y.[dC].G.F}|CHEM1{[C(CSSCCN[*:2])N[*:1]]}$PEPTIDE1,PEPTIDE2,2:R3-2:R3|PEPTIDE1,CHEM1,4:R2-1:R1|PEPTIDE2,CHEM1,4:R2-1:R2$$$V2.0)	2.4	91	4.1	26.9	18	inactive	87.1	inactive	99	inactive	90	135		
Cc1cc(O)cc(C)c1C[C@H](N)C(=O)N[C@@H]1CSSC[C@@H](NC(=O)[C@@H](N)Cc2c(C)cc(O)cc2C)C(=O)NCC(=O)N[C@@H](Cc2ccccc2)C(=O)NCCSSCCNC(=O)[C@H](Cc2ccccc2)NC(=O)CNC1=O (I: H-[Dmt][dC]GF / II: H-[Dmt][dC]GF; disulfide I:2-II:2; linker I:C-II:C via Cystamine)	0.27	106	0.46	1.45	0.87	inactive	3.47	inactive	98	inactive	119	13.5		
Cc1cc(O)cc(C)c1C[C@H](N)C(=O)N[C@@H]1CSSC[C@@H](NC(=O)[C@@H](N)Cc2c(C)cc(O)cc2C)C(=O)NCC(=O)N[C@@H](Cc2ccccc2)C(=O)N2CCN(CC2)C(=O)[C@H](Cc2ccccc2)NC(=O)CNC1=O (I: H-[Dmt][dC]GF / II: H-[Dmt][dC]GF; disulfide I:2-II:2; linker I:C-II:C via Piperazine(1,4-diyl))	2.5	90	2	117	4.9	inactive	112	inactive	82	inactive	58	63.1	11.7	
C[C@@H](NC(=O)[C@@H](N)Cc1ccc(O)cc1)C(=O)NCC(=O)N[C@@H](Cc1ccccc1)C(=O)NNC(=O)[C@H](Cc1ccccc1)NC(=O)CNC(=O)[C@@H](C)NC(=O)[C@@H](N)Cc1ccc(O)cc1 [BIPHALIN]														270
